Experimental data published in patent publication US7135466B2 (Kirin Beer Kabushiki Kaisha, priority 1999, dated 2006).

Each compound was assayed against T1, c-kit (Homo sapiens, UniProt P10721) (assay: Inhibitory activity against c-kit autophosphorylation (MO7e cells, h-SCF)). Conditions: MO7e cells, h-SCF stimulation; read-out: c-kit IC50.
T1 construct: MO7e (human megakaryocytic leukemia cell line) which had been arrested for 20 hr; endogenous in cells; host or cells: MO7e human megakaryocytic leukemia cell line
T1 sequence (P10721 26-976): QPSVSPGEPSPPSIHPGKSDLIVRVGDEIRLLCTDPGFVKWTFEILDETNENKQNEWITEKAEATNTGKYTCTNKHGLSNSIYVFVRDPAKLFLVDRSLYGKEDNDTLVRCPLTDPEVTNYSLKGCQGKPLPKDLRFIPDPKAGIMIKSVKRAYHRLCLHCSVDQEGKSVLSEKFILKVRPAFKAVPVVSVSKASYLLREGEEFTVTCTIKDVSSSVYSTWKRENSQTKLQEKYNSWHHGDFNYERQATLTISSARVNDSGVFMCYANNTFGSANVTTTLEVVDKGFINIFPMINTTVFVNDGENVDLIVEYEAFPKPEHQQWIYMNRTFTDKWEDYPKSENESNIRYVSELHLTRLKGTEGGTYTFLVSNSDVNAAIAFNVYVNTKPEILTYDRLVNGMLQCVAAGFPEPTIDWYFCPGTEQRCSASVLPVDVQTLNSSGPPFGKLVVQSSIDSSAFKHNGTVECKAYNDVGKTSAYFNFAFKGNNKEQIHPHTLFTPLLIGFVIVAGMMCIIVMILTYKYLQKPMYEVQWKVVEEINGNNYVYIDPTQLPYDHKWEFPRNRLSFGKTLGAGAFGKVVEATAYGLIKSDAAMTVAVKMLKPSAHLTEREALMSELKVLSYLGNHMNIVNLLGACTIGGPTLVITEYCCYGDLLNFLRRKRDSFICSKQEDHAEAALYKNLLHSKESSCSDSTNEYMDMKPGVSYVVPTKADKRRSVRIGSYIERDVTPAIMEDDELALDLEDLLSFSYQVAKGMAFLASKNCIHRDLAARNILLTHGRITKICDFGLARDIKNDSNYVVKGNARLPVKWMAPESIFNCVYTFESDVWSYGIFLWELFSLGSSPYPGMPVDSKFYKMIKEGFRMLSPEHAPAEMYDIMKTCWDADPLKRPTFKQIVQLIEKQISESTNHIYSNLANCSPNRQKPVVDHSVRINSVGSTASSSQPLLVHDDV
Assay type: cell-based
Summary of the method: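 Phospho-c-kit ELISA: plate-bound PY-20 anti-phosphotyrosine captures lysate, anti-c-kit plus peroxidase-labelled secondary antibody detect, read at 450 nm. Lysates come from 20 hr-arrested MO7e cells given compound for 1 hr before a 5 min 50 ng/ml h-SCF stimulus.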

| IC50 | Structure (SMILES) |
| --- | --- |
| 0.597 µM | COc1cc2nccc(Oc3ccc(NC(=S)NC(=O)c4sccc4C)c(F)c3)c2cc1OC [Example 1038, N-{4-[(6,7-Dimethoxy-4-quinolyl)oxy]-2-fluorophenyl}-N′-[(3-methyl-2-thienyl)carbonyl]thiourea] |
| 0.556 µM | COc1cc2nccc(Oc3ccc(NC(=S)NC(=O)c4cc(C)oc4C)cc3F)c2cc1OC [Example 1039, N-{4-[(6,7-Dimethoxy-4-quinolyl)oxy]-3-fluorophenyl}-N′-[(2,5-dimethyl-3-furyl)carbonyl]thiourea] |
| 0.178 µM | COc1cc2nccc(Oc3ccc(NC(=S)NC(=O)N(C)c4ccccc4)cc3Cl)c2cc1OC [Example 1053, N-{3-Chloro-4-[(6,7-dimethoxy-4-quinolyl)oxy]phenyl}-{[(methylanilino)carbonyl]amino}methanethioamide] |
| 0.932 µM | COc1cc2nccc(Oc3ccc(NC(=S)NC(=O)C4CC4)cc3F)c2cc1OC [Example 1056, N-Cyclopropylcarbonyl-N′-{4-[(6,7-dimethoxy-4-quinolyl)oxy]-3-fluorophenyl}thiourea] |
| 0.447 µM | COc1cc2nccc(Oc3ccc(NC(=S)NC(=O)C4CC4c4ccccc4)cc3F)c2cc1OC (stereo not shown) [Example 1057, N-{4-[(6,7-Dimethoxy-4-quinolyl)oxy]-3-fluorophenyl}-N′-[(2-phenylcyclopropyl)carbonyl]thiourea] |
| 0.55 µM | COc1cc2nccc(Oc3ccc(NC(=S)NC(=O)C4CC4c4ccccc4)cc3Cl)c2cc1OC (stereo not shown) [Example 1059, N-{3-Chloro-4-[(6,7-dimethoxy-4-quinolyl)oxy]phenyl}-N′-[(2-phenylcyclopropyl)carbonyl]thiourea] |
| 0.136 µM | COc1cc2nccc(Oc3ccc(NC(=S)NC(=O)C4CCCC4)cc3)c2cc1OC [Example 1061, N-Cyclopentylcarbonyl-N′-{4-[(6,7-dimethoxy-4-quinolyl)oxy]phenyl}thiourea] |
| 0.233 µM | COc1cc2nccc(Oc3ccc(NC(=S)NC(=O)C4CCCCC4)cc3)c2cc1OC [Example 1062, N-Cyclohexylcarbonyl-N′-{4-[(6,7-dimethoxy-4-quinolyl)oxy]phenyl}thiourea] |
| 0.491 µM | COc1cc2nccc(Oc3ccc(NC(=S)NC(=O)C4CCCC4)c(F)c3)c2cc1OC [Example 1063, N-Cyclopentylcarbonyl-N′-{4-[(6,7-dimethoxy-4-quinolyl)oxy]-2-fluorophenyl}thiourea] |
| 0.279 µM | COc1cc2nccc(Oc3ccc(NC(=S)NC(=O)C4CCCCC4)c(F)c3)c2cc1OC [Example 1064, N-Cyclohexylcarbonyl-N′-{4-[(6,7-dimethoxy-4-quinolyl)oxy]-2-fluorophenyl}thiourea] |
| 0.279 µM | COc1cc2nccc(Oc3ccc(NC(=S)NC(=O)CCCCl)c(F)c3)c2cc1OC [Example 1066, N-(4-Chlorobutanoyl)-N′-{4-[(6,7-dimethoxy-4-quinolyl)oxy]-2-fluorophenyl}thiourea] |
| 0.449 µM | COc1cc2nccc(Oc3ccc(NC(=S)NC(=O)CCSC)c(F)c3)c2cc1OC [Example 1067, N-{4-[(6,7-Dimethoxy-4-quinolyl)oxy]-2-fluorophenyl}-N′-[3-(methylsulfanyl)propanoyl]thiourea] |
| 0.124 µM | COc1cc2nccc(Oc3ccc(NC(=S)NC(=O)CCCCl)cc3F)c2cc1OC [Example 1068, N-(4-Chlorobutanoyl)-N′-{4-[(6,7-dimethoxy-4-quinolyl)oxy]-3-fluorophenyl}thiourea] |
| 0.189 µM | COc1cc2nccc(Oc3ccc(NC(=S)NC(=O)CCSC)cc3F)c2cc1OC [Example 1069, N-{4-[(6,7-Dimethoxy-4-quinolyl)oxy]-3-fluorophenyl}-N′-[3-(methylsulfanyl)propanoyl]thiourea] |
| 0.391 µM | COc1ccc(C(=O)NC(=S)Nc2ccc(Oc3ccnc4cc(OC)c(OC)cc34)c(F)c2)cc1OC [Example 1070, N-(3,4-Dimethoxybenzoyl)-N′-{4-[(6,7-dimethoxy-4-quinolyl)oxy]-3-fluorophenyl}thiourea] |
| 0.495 µM | COc1ccc(C(=O)NC(=S)Nc2ccc(Oc3ccnc4cc(OC)c(OC)cc34)c(C)c2C)cc1 [Example 1087, N-{4-[(6,7-Dimethoxy-4-quinolyl)oxy]-2,3-dimethylphenyl}-N′-(4-methoxybenzoyl)thiourea] |
| 0.552 µM | COc1cc2nccc(Oc3ccc(NC(=S)NC(=O)c4ccccc4)c(C)c3)c2cc1OC [Example 1099, N-Benzoyl-N′-{4-[(6,7-dimethoxy-4-quinolyl)oxy]-2-methylphenyl}thiourea] |
| 0.962 µM | COc1cc2nccc(Oc3ccc(NC(=S)NC(=O)c4ccc([N+](=O)[O-])cc4)cc3C)c2cc1OC [Example 1108, N-{4-[(6,7-Dimethoxy-4-quinolyl)oxy]-3-methylphenyl}-N′-(4-nitrobenzoyl)thiourea] |
| 0.353 µM | COc1cc2nccc(Oc3ccc(NC(=S)NC(=O)c4ccccc4)cc3C)c2cc1OC [Example 1109, N-Benzoyl-N′-{4-[(6,7-dimethoxy-4-quinolyl)oxy]-3-methylphenyl}thiourea] |

Same assay, conditions: Mo7e, figure in parentheses in −( ); at 1000 nM

| inhibition at 1 µM | Structure (SMILES) |
| --- | --- |
| 7% | COc1cc2nccc(Oc3ccc(NC(=S)NC(=O)N4c5ccccc5CCc5ccccc54)cc3)c2cc1OC [Example 1047, N-[10,11-Dihydro-5H-dibenzo(b,f)azepin-5-ylcarbonyl]-N′-{4-[(6,7-dimethoxy-4-quinolyl)oxy]phenyl}thiourea] |
| 7% | CCCCCCCCCCCCCC(=O)NC(=S)Nc1ccc(Oc2ccnc3cc(OC)c(OC)cc23)cc1F [Example 1076, N-{4-[(6,7-Dimethoxy-4-quinolyl)oxy]-2-fluorophenyl}-N′-tetradecanoylthiourea] |
| 32% | COc1cc2nccc(Oc3ccc(NC(=S)NC(=O)c4ccccc4Cl)c(C)c3C)c2cc1OC [Example 1078, N-(2-Chlorobenzoyl)-N′-{4-[(6,7-dimethoxy-4-quinolyl)oxy]-2,3-dimethylphenyl}thiourea] |
| 25% | COc1cc2nccc(Oc3ccc(NC(=S)NC(=O)c4cccc(C)c4)c(C)c3C)c2cc1OC [Example 1079, N-{4-[(6,7-Dimethoxy-4-quinolyl)oxy]-2,3-dimethylphenyl}-N′-(3-methylbenzoyl)thiourea] |
| 0% | COc1cc2nccc(Oc3ccc(NC(=S)NC(=O)c4ccc(C)cc4)c(C)c3C)c2cc1OC [Example 1080, N-{4-[(6,7-Dimethoxy-4-quinolyl)oxy]-2,3-dimethylphenyl}-N′-(4-methylbenzoyl)thiourea] |
| 15% | COc1cc2nccc(Oc3ccc(NC(=S)NC(=O)c4ccc(Cl)cc4)c(C)c3C)c2cc1OC [Example 1082, N-(4-Chlorobenzoyl)-N′-{4-[(6,7dimethoxy-4-quinolyl)oxy]-2,3-dimethylphenyl}thiourea] |
| 30% | COc1cc2nccc(Oc3ccc(NC(=S)NC(=O)c4cccc(Cl)c4)c(C)c3C)c2cc1OC [Example 1083, N-(3-Chlorobenzoyl)-N′-{4-[(6,7-dimethoxy-4-quinolyl)oxy]-2,3-dimethylphenyl}thiourea] |
| 30% | COc1cc2nccc(Oc3ccc(NC(=S)NC(=O)c4ccccc4)c(C)c3C)c2cc1OC [Example 1084, N-Benzoyl-N′-{4-[(6,7-dimethoxy-4-quinolyl)oxy]-2,3-dimethylphenyl}thiourea] |
| 25% | COc1cc2nccc(Oc3ccc(NC(=S)NC(=O)c4ccccc4C)c(C)c3C)c2cc1OC [Example 1085, N-{4-[(6,7-Dimethoxy-4-quinolyl)oxy]-2,3-dimethylphenyl}-N′-(2-methylbenzoyl)thiourea] |
| 23% | COc1cc2nccc(Oc3ccc(NC(=S)NC(=O)c4ccc(F)cc4F)c(C)c3C)c2cc1OC [Example 1088, N-(2,4-Difluorobenzoyl)-N′-{4-[(6,7-dimethoxy-4-quinolyl)oxy]-2,3-dimethylphenyl}thiourea] |
| 28% | COc1cc2nccc(Oc3ccc(NC(=S)NC(=O)c4ccc(Cl)cc4)c(C)c3)c2cc1OC [Example 1089, N-(4-Chlorobenzoyl)-N′-{4-[(6,7-dimethoxy-4-quinolyl)oxy]-2-methylphenyl}thiourea] |
| 30% | COc1cc2nccc(Oc3ccc(NC(=S)NC(=O)c4ccccc4C)c(C)c3)c2cc1OC [Example 1090, N-{4-[(6,7-Dimethoxy-4-quinolyl)oxy]-2-methylphenyl}-N′-(2-methylbenzoyl)thiourea] |
| 39% | COc1cc2nccc(Oc3ccc(NC(=S)NC(=O)c4cccc(F)c4)c(C)c3)c2cc1OC [Example 1091, N-{4-[(6,7-Dimethoxy-4-quinolyl)oxy]-2-methylphenyl}-N′-(3-fluorobenzoyl)thiourea] |
| 32% | COc1cc2nccc(Oc3ccc(NC(=S)NC(=O)c4ccc(F)cc4)c(C)c3)c2cc1OC [Example 1093, N-{4-[(6,7-Dimethoxy-4-quinolyl)oxy]-2-methylphenyl}-N′-(4-fluorobenzoyl)thiourea] |
| 18% | COc1cc2nccc(Oc3ccc(NC(=S)NC(=O)c4ccccc4F)c(C)c3)c2cc1OC [Example 1094, N-{4-[(6,7-Dimethoxy-4-quinolyl)oxy]-2-methylphenyl}-N′-(2-fluorobenzoyl)thiourea] |
| 8% | COc1cc2nccc(Oc3ccc(NC(=S)NC(=O)c4ccccc4Cl)c(C)c3)c2cc1OC [Example 1097, N-(2-Chlorobenzoyl)-N′-{4-[(6,7-dimethoxy-4-quinolyl)oxy]-2-methylphenyl}thiourea] |
| 41% | COc1cc2nccc(Oc3ccc(NC(=S)NC(=O)c4cccc(C)c4)c(C)c3)c2cc1OC [Example 1098, N-{4-[(6,7-Dimethoxy-4-quinolyl)oxy]-2-methylphenyl}-N′-(3-methylbenzoyl)thiourea] |
| 18% | COc1cc2nccc(Oc3ccc(NC(=S)NC(=O)c4cccc(Cl)c4)c(C)c3)c2cc1OC [Example 1100, N-(3-Chlorobenzoyl)-N′-{4-[(6,7-dimethoxy-4-quinolyl)oxy]-2-methylphenyl}thiourea] |
